According to a melting point compilation (Tetko et al.; mined from patent text by program, amines drawn as free bases though some values may be those of a salt):

Compared with `COc1cc(OC)c(-c2nc(NC(=O)c3cc4cc(C)cc(C)c4n3CC(=O)O)sc2CCC2CCCCC2)cc1Br`, `COc1ccc(-c2cc(=Nc3c(C)cc(C)cc3C)n(C)c(C)n2)cc1OC` is lower in melting point: 221 to 222 °C for the first, 163 to 168 °C for the second.

First: CC(=O)Nc1ccc(CNc2n[nH]c3ncnc(Nc4cccc(Cl)c4)c23)cc1
Second: CC(=O)Nc1ccc2c(c1)N(C1CCN(CCc3ccc(F)cc3)CC1)CC2
The melting point of the first is higher: greater than 260 °C for the first, 148 to 150 °C for the second.

First: Nc1c(-c2nc(-c3ccco3)n[nH]2)cnn1CCc1ccccc1
Second: Cc1nc(N2CCN(CCc3c[nH]c4ccccc34)C2=O)sc1C(=O)NCc1cccnc1
The melting point of the first is lower: 175 to 176 °C for the first, 198 to 201 °C for the second.

Compared with `COC(=O)[C@@](C#N)(COCc1ccccc1)[C@H](c1ccccc1OC)c1cccc2ccccc12` (relative stereo), `O=C(O)CCCOc1ccc(OCCC(c2ccccc2)(c2ccccc2)c2ccccc2)cc1` is higher in melting point: 133 to 134 °C for the first, 138 to 139 °C for the second.

First: Cn1cc(C(=O)O)c(=O)c2c3cc(N4CCC(O)(c5cccc(C(F)(F)F)c5)CC4)c(F)cc3ncc21
Second: O=C(O)c1cn(C2CCN(c3c(F)cc4c(=O)c(C(=O)O)cn(C5CC5)c4c3F)C2)nn1 (stereo not drawn)
The melting point of the first is higher: 300 °C for the first, 222 to 225 °C for the second.

First: Cc1cn(C2CC(N=[N+]=[N-])C(CO)O2)c(=O)nc1N (stereo not drawn)
Second: CCCn1cc(C(N)=O)c(N)n1
The melting point of the first is lower: 85 to 88 °C for the first, 160 to 163 °C for the second.

First: O=C(NCc1ccc2c(c1)OCO2)c1ccc2[nH]c(=O)n(Cc3ccc(Cl)cc3)c(=O)c2c1
Second: COc1cccc(OC)c1C(=O)NCC(=O)N1c2ccccc2N(Cc2ccccc2)C(=O)[C@H]2CCC[C@H]21 (relative stereo)
The melting point of the first is higher: 290 °C for the first, 182 to 184 °C for the second.

First: Nc1ccc(Cl)c(S(=O)c2ccccc2)c1 (stereo not drawn)
Second: COc1cc(C=CC(=O)c2ccccc2)ccc1O
The melting point of the first is higher: 152 to 155 °C for the first, 87 to 88 °C for the second.

First: CCc1ccc(-c2nc3cccnc3n2-c2ccc(CCNC[C@H](O)COc3ccc(O)cc3)cc2)cc1
Second: CCCCCCCCOc1ccc(-c2ccc(CCl)cc2)cc1
The melting point of the first is lower: 75 to 78 °C for the first, 101 °C for the second.

First: COc1cc(-c2snnc2C)cc2oc(=O)c(C)c(C)c12
Second: COc1cc(-c2cnc3[nH]cc(I)c3n2)cc(OC)c1OC
The melting point of the first is lower: 204 to 206 °C for the first, 230 to 232 °C for the second.

Compared with `COc1nc(Nc2ccc(Cl)cc2[N+](=O)[O-])nc(OC)n1`, `COc1cc(OC)nc(Oc2ccnc3cc(Cl)ccc23)n1` is lower in melting point: 206 to 208 °C for the first, 119 to 120 °C for the second.

First: CCOC(=O)CNC(=O)[C@H](CSCc1ccccc1)NC(=O)OCc1ccccc1
Second: NC(=O)C1CCN(C(=O)CNC(=O)OCc2ccccc2)CC1
The melting point of the first is lower: 93 to 95 °C for the first, 146 to 149 °C for the second.

First: CC(=O)c1ccc(CC(=O)OC(C)(C)C)cc1
Second: CC(=O)c1ccc(CCNS(C)(=O)=O)cc1
The melting point of the first is lower: 50 to 52 °C for the first, 80 to 81 °C for the second.

Compared with `CC(C)N1CCN(Cc2ccc3c(c2)-c2[nH]nc(-c4ccsc4)c2C3)CC1`, `O=C(O)CCc1ccc2c(c1)CCc1ccc(C(=O)O)cc1S2` is higher in melting point: 182 to 185 °C for the first, 233 to 235 °C for the second.

Compared with `CCCc1c(O)cccc1Oc1ccccc1C(=O)OC`, `COC(=O)C(=O)c1ccc(OCOc2ccccc2)cc1` is lower in melting point: 80 °C for the first, 52 to 54 °C for the second.

Compared with `C1=CCC2=C(C1)CCc1ccccc1C2CCN1CCCC1` (stereo not drawn), `CN1CC(CCO)N2c3ccccc3Oc3ccccc3C2C1` (stereo not drawn) is higher in melting point: 57 to 58.5 °C for the first, 138 to 139 °C for the second.

Compared with `COCCC(=O)OC[C@@H]1CC(c2ccc(-c3ccc(N4C[C@H](Cn5ccnn5)OC4=O)cc3F)cn2)=NO1`, `Cc1noc(NC(=O)N2CCN(c3ccnc(-c4ccc(F)cc4F)n3)CC2)c1C` is higher in melting point: 149 °C for the first, 207 to 208 °C for the second.

Compared with `COC(=O)CCn1c(C)c(Cc2cccnc2)c2c(CCC(=O)O)cccc21`, `Cc1[nH]c(=O)n(CCC(C(=O)NO)N(C)S(=O)(=O)c2ccc(Oc3ccccc3)cc2)c(=O)c1F` (stereo not drawn) is higher in melting point: 165 to 167 °C for the first, 196 to 198 °C for the second.

`COc1ccc2cc(CCc3ccc(OCC(O)CNC(C)C)c(OC)c3)n(C)c(=O)c2c1` (stereo not drawn) and `COc1ccc(-c2cc3ccc(OC)cc3n2C)cc1` cannot be ordered by melting point: 162 to 164 °C for the first, 163 to 166 °C for the second.

First: COCc1cc(CCCOc2c(Cl)cc(-c3noc(C)n3)cc2Cl)on1
Second: CCc1nn(Cc2noc(O)n2)c(CC)c1Oc1cc(Cl)cc(Cl)c1
The melting point of the first is lower: 55.5 to 56 °C for the first, 94 to 96 °C for the second.

First: CC1(C)OCCN1C(=O)C=Cc1ccc(F)cc1
Second: Cc1nc(N2CCC(CC3CC3)C2=O)sc1C(=O)NCc1ccc(F)cc1 (stereo not drawn)
The melting point of the first is lower: 106 to 108 °C for the first, 153 to 155 °C for the second.

First: O=C1CC(c2cccc(-n3ccnc3)c2)=Nc2cc(OCCO)c(C#Cc3ccc(F)cc3)cc2N1
Second: Cn1cncc1C(c1ccc(Cl)cc1)c1ccc2c(c1)C(c1cccc(Cl)c1)SCc1nnnn1-2 (stereo not drawn)
The melting point of the first is higher: 220 to 222 °C for the first, 162 °C for the second.

First: Cc1cc(-c2ccc(S(C)(=O)=O)cc2)n(-c2ccc(-c3ccoc3)cc2)c1C
Second: COC1(c2nc3c(F)cccc3s2)C=CC(=NS(=O)(=O)c2ccc(C)cc2)C=C1 (stereo not drawn)
The melting point of the first is higher: 215 to 219 °C for the first, 176 °C for the second.

First: CCOC(=O)NCCc1ccccc1
Second: CCOC(=O)C1(c2ccccc2)CCC=CC1Cl (stereo not drawn)
The melting point of the first is lower: 47 to 48 °C for the first, 137 to 139 °C for the second.

First: COc1nc2c(C)cccc2c2c1CCN2c1ccccc1C
Second: COc1ccc(C(=O)Nc2c(Cl)cncc2Cl)c2c1[nH]c1ccccc12
The melting point of the first is lower: 107 to 108 °C for the first, greater than 250 °C for the second.

First: COc1ccc(-c2nc(-c3cccn3CC(=O)OCCC(C)C)sc2-c2ccc(OC)cc2)cc1
Second: COc1ccc(S(=O)(=O)N(CC(=O)NO)Cc2ccc3ccccc3n2)cc1
The melting point of the first is lower: 98.5 to 102 °C for the first, 177 to 178 °C for the second.

First: CCCCS(=O)(=O)Nc1cccc(OCc2ccc3ccccc3n2)c1
Second: O=C(O)COc1ccc2c(c1)-c1nc(S(=O)(=O)C(c3ccccc3)c3ccccc3)sc1CC2
The melting point of the first is lower: 105 to 106 °C for the first, 169 to 170 °C for the second.

Compared with `CC(C)[C@@H](NS(=O)(=O)c1ccc(-c2ccsc2)cc1)C(=O)O`, `Cc1ccc(-c2cncc(/C=C/C(=O)O)c2)cc1` is higher in melting point: 169 °C for the first, 208 to 211 °C for the second.

Compared with `O=c1[nH]c2cc(Cl)c(Cl)cc2[n+]([O-])c1-c1ccccc1O`, `O=C1Nc2ccc(Cl)cc2C1(Cl)c1ccccc1OC(F)(F)F` (stereo not drawn) is lower in melting point: 266 to 268 °C for the first, 185 °C for the second.

First: CN(C)C(=O)c1cc2c(nc(C(F)(F)F)n2C)c2c1CCC(c1ccccc1)O2 (stereo not drawn)
Second: CC(C)(C)CC(C)(C)c1cc(-n2nc3ccc(C(F)(F)F)cc3n2)c(O)c(C(C)(C)c2ccccc2)c1
The melting point of the first is higher: 223 to 225 °C for the first, 119 to 121 °C for the second.

Compared with `CC(=O)Oc1ccc(C(=O)Cl)cc1`, `CCOC(=O)C(C)Oc1ccc(C)cc1` (stereo not drawn) is lower in melting point: 167 °C for the first, 78 to 82 °C for the second.

First: CC1C=CC(=O)OC1=O (stereo not drawn)
Second: O=C1NC(=O)C(c2ccc3c(c2)CCC3)S1 (stereo not drawn)
The melting point of the first is lower: 70 to 72 °C for the first, 124 to 125 °C for the second.

First: CCC1(CC)CC(=O)c2ccc(O)cc2O1
Second: CC(=O)CCn1[nH]c(=O)c2ccccc2c1=O
The melting point of the first is lower: 97 to 99 °C for the first, 152 to 153 °C for the second.

First: CSc1nc(NCCCn2ccnc2)c(C#N)c(N2CCc3ccccc3CC2)n1
Second: Cc1nc2c(N)nc3ccccc3c2n1CCCCNC(=O)C1CCCC1
The melting point of the first is lower: 131 to 134 °C for the first, 169 to 170 °C for the second.

First: FC(F)(F)c1ccc(C=CC(C=Cc2ccc(C(F)(F)F)cc2)=NNC2=NCCCN2)cc1
Second: CCC(c1ccc(C(O)(C(F)(F)F)C(F)(F)F)cc1)S(=O)(=O)c1ccccc1 (stereo not drawn)
The melting point of the first is higher: 196 to 197 °C for the first, 148 °C for the second.

Compared with `COc1cnc2[nH]cc(/C=C3\N=C(NCC4CC4)NC3=O)c2c1`, `C[C@@H]1CN(C(=O)OC(C)(C)C)Cc2cc3cc(F)cnc3n21` is lower in melting point: 280 to 286 °C for the first, 85 to 87 °C for the second.

First: O=C(Nc1ccccc1)N1CCc2cc(S(=O)(=O)N3CCN(c4cccc(Cl)c4)CC3)ccc21
Second: COc1ccc(C=CC(=O)c2ccc(OCC(O)CN3CCN(c4ccccc4)CC3)cc2)cc1OC (stereo not drawn)
The melting point of the first is higher: 177 to 178 °C for the first, 126 to 127 °C for the second.

First: CC(C)(C)NCC(O)c1ccc(N)c(C#N)c1 (stereo not drawn)
Second: CN(C)c1ccc(NC(=S)NCC(C)(C)C)cc1
The melting point of the first is higher: 181 to 185 °C for the first, 174 to 176 °C for the second.

Compared with `CCOC(=NC(=O)CCl)N1Cc2ccccc2-c2ccccc2C1`, `CCCCc1nc(SC)c(C(C)=O)n1Cc1ccc(-c2ccccc2S(=O)(=O)NC(=O)NCCC)cc1` is higher in melting point: 87 to 89 °C for the first, 176 to 177 °C for the second.

Compared with `CN(C(C)(C)CC(=O)Oc1ccccc1C(C)(C)C)S(=O)(=O)C(F)(F)F`, `COc1ccc(NC(=O)NC2CCN(Cc3ccccc3)CC2)c(CCc2cc(C(C)(C)C)c(O)c(C(C)(C)C)c2)c1` is higher in melting point: 42 to 44 °C for the first, 174 to 175 °C for the second.

Compared with `CS(=O)(=O)c1ccc(C(CC2CCCC2)C(=O)Nc2ccc(C(=O)O)cn2)cc1` (stereo not drawn), `CC(C)(C)OC(=O)c1ccc(N2CCC(N)CC2)cc1` is lower in melting point: 191 to 193 °C for the first, 89 to 91 °C for the second.

Compared with `CC1CC(N)=NN1c1ccc(Cl)cc1Cl` (stereo not drawn), `Cc1cc(Cl)ccc1N=c1ssnc1Cl` is higher in melting point: 109 to 111 °C for the first, 130 to 131 °C for the second.

Compared with `N=C(N)N(CCCCCCCCCCC(=O)O)C(=O)c1nc(Cl)c(N)nc1N`, `O=C(O)CCSC(c1ccccc1CCCCCCCCc1ccccc1)C(O)C(=O)O` (stereo not drawn) is lower in melting point: 181 to 191 °C for the first, 91 to 92 °C for the second.

First: COC1=C(OC)C(=O)C(CCCCCCCCCC=O)=C(C)C1=O
Second: CCOC(=O)c1ccc(OCCCCCCCc2cc(C)no2)cc1
The melting point of the first is lower: 44.5 to 46.5 °C for the first, 60 to 61 °C for the second.

First: O=C(O)c1cnc(S)n1Cc1cc(F)cc(F)c1
Second: O=C(O)Cn1cc(Cc2nc3c(F)c(F)cc(F)c3s2)c2ccc(F)cc21
The melting point of the first is higher: 240 to 241 °C for the first, 200 to 203 °C for the second.

First: Oc1cc(Br)c2oc(-c3ccc(O)c(C(F)(F)F)c3)nc2c1
Second: Cc1cccc(-c2c(CC(=O)Nc3ccc(F)cc3C(F)(F)F)c(=O)oc3cc4c(cc23)CCC4O)c1 (stereo not drawn)
The melting point of the first is lower: 183 to 185 °C for the first, 225 to 227 °C for the second.

First: C/C(=C\COC(=O)c1ccccc1)CCc1c(C)c(O)c(C)c(C)c1O
Second: COC(=O)c1cccc(CCN(C)CCCC(C#N)(C(=O)OC)c2ccc(OC)c(OC)c2)c1 (stereo not drawn)
The melting point of the first is higher: 112 to 114 °C for the first, 94 to 95 °C for the second.

Compared with `CC12CCC(C(=O)O)=CC1=CCC1C2CCC2(C)C(C(=O)c3ccccc3)CCC12` (stereo not drawn), `CC=C1CCC2C3CC=C4CC(O[Si](CC)(CC)CC)CC(O[Si](CC)(CC)CC)C4(C)C3CCC12C` (stereo not drawn) is lower in melting point: 222 to 225 °C for the first, 81 to 82 °C for the second.

Compared with `O=Cc1ccc2c(c1I)OCO2`, `CCN(c1cc2c3c(c1)CCCC3(C)CCC2)c1ncc(C(=O)O)cn1` is higher in melting point: 124 to 126 °C for the first, 257 to 258 °C for the second.
